These results are taken from patent US20250122397A1, “FOOD SAFE AQUEOUS INKJET COMPOSITIONS” (Canon Production Printing Holding B.V., priority 2023, published 2025).

A short description of the first series: Viscosity, Haake Rheostress RS 600 rheometer, flat plate geometry. The settings on record: 1.5 mol/kg aqueous Mg-salt solution, 25° C. Format: physicochemical. Here is the method: The viscosity is measured using a Haake Rheometer, type Haake Rheostress RS 600, with a flat plate geometry at a temperature of 25° C. unless otherwise indicated. The viscosity is measured at shear rates (i) of between in the range of between 10 s^−1 and 1000 s^−1, unless otherwise indicated.
For the compound `O=[N+]([O-])[O-].O=[N+]([O-])[O-].[Mg+2]` [compound 2, Mg-nitrate, reference compound], the Viscosity worked out at 4.6 mPas.

With `CC(=O)CCC(=O)[O-].CC(=O)CCC(=O)[O-].[Mg+2]` [compound 14, Mg-levulinate], the Viscosity was determined as 10.3 mPas.

As to `O=C([O-])CCC(=O)[O-].[Mg+2]` [compound 10, Mg-succinate], the Viscosity turned out to be 5.0 mPas.

For the compound `O=C([O-])CCCCC(=O)[O-].[Mg+2]` [compound 15, Mg-adipate], the Viscosity is recorded as 8.8 mPas.

`O=S(=O)([O-])[O-].[Mg+2]` [compound 1, Mg-sulfate, reference compound]: the Viscosity is 3.2 mPas.

As to `C=C(CC(=O)[O-])C(=O)[O-].[Mg+2]` [compound 8, Mg-itaconate], the Viscosity is on record as 5.5 mPas.

The series is the same for the next values; noted with them: jettable range typically between 2 and 8 mPas; 1.5 mol/kg solution.
Regarding `CC(=O)CCC(=O)[O-].CC(=O)CCC(=O)[O-].[Mg+2]` [compound 14, Mg-levulinate], the “viscosity relative to the jettable range” value is listed as “outside the jettable range”.
